According to PMC5515971, “Utility of spherical human liver microtissues for prediction of clinical drug-induced liver injury” (Archives of Toxicology, 2017):
Like-named read-outs stand apart in the source and are kept apart here.

Key:
[1] = tested on: primary human hepatocytes (PHH); experiment: Cytotoxicity (cellular ATP, CellTiter-Glo) in 2D plated primary human hepatocytes, 48 h treatment; assay type: cell-based; conditions: for IC50: read-out: Geomean IC50;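 as to all read-outs here: 384-well plates, luminescence read-out, normalized to vehicle wells with 1% DMSO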
[2] = tested on: 3D human liver microtissues (hLiMT); experiment: Cytotoxicity (cellular ATP, CellTiter-Glo 2.0) in 3D human liver microtissues, 14 day repeat-dose treatment
[3] = ref Chen et al 2016 / Chen et al 2011; cited from earlier work
[4] = cited from earlier work; for DILI category: clinical, from literature and product labels, ref Garside et al. 2014
[5] = cited from earlier work
[6] = Hepatocyte, 2D primary human hepatocytes (lot IZT), 48 h treatment, total cellular ATP content
[7] = Homo sapiens, Hepatocyte, 336 h, read-out: Geomean IC50 [µM]
[8] = Table 1, ref Garside et al. (2014)
[9] = clinical DILI severity category, 1-5
[10] = human Cmax total, used for IC50/Cmax
[11] = human total plasma Cmax, ref literature values
[12] = 2D primary human hepatocytes (lot IZT), 48 h treatment, total cellular ATP content
[13] = read-out: Geomean IC50, decrease in total cellular ATP content, hLiMT treated for 14 days, hepatocyte lot IZT (except Dexamethasone) co-cultured with NPCs, n=1 or geometric mean

Row | SMILES | IC50 [1, 6] [µM] | IC50 [2, 7] [µM] | DILI severity category [4, 8] | DILI severity category [4, 9] | DILI category [4] | Cmax [5, 10] [µM] | Cmax [5, 11] [µM] | other results
1 | CC(=O)Oc1ccccc1C(=O)O [Acetylsalicylic acid] | > 1000 | > 1000 | 3: Low clinical DILI concern (N = 23) | 3. Low Clinical DILI Concern | 3. Low Clinical DILI Concern | 1110 | 1110 | FDA DILI Classification DILI severity score [3]: 5
2 | CN(C)CCC=C1c2ccccc2CCc2ccccc21 [Amitriptyline] | 41.8 | 18.8 | 3: Low clinical DILI concern (N = 23) | 3. Low Clinical DILI Concern | 3. Low Clinical DILI Concern | 0.721 | 0.72 | FDA DILI Classification DILI severity score [3]: 5; LTKB DILI classification [3]: less DILI concern
3 | CCN(CC)Cc1cc(Nc2ccnc3cc(Cl)ccc23)ccc1O [Amodiaquine] | 18.5 | < 7.8 | 2: High clinical DILI concern (N = 23) | 2. High Clinical DILI Concern | 2. High Clinical DILI Concern | 1.91 | 1.91 | –
4 | Cn1cnc([N+](=O)[O-])c1Sc1ncnc2nc[nH]c12 [Azathioprine] | > 100 | 22.2 | 2: High clinical DILI concern (N = 23) | 2. High Clinical DILI Concern | 2. High Clinical DILI Concern | 7.2 | 7.21 | FDA DILI Classification DILI severity score [3]: 5; LTKB DILI classification [3]: most DILI concern
5 | CC(C(=O)O)c1ccc2oc(-c3ccc(Cl)cc3)nc2c1 (stereo not shown) [Benoxaprofen] | > 100 | > 100 | 1: Severe clinical DILI (N = 23) | 1. Severe Clinical DILI | 1. Severe Clinical DILI | 149 | 149 | FDA DILI Classification DILI severity score [3]: 8; LTKB DILI classification [3]: most DILI concern
6 | CCc1oc2ccccc2c1C(=O)c1cc(Br)c(O)c(Br)c1 [Benzbromarone] | 171 | 11.8 | 1: Severe clinical DILI (N = 23) | 1. Severe Clinical DILI | 1. Severe Clinical DILI | 23.6 | 23.6 | FDA DILI Classification DILI severity score [3]: 8; LTKB DILI classification [3]: most DILI concern
7 | NC(=O)N1c2ccccc2C=Cc2ccccc21 [Carbamazepine] | > 500 | 267 | 2: High clinical DILI concern (N = 23) | 2. High Clinical DILI Concern | 2. High Clinical DILI Concern | 50.8 | 50.8 | FDA DILI Classification DILI severity score [3]: 7; LTKB DILI classification [3]: most DILI concern
8 | Cc1ccc(-c2cc(C(F)(F)F)nn2-c2ccc(S(N)(=O)=O)cc2)cc1 [Celocoxib] | – | – | 2: High clinical DILI concern (N = 23) | 2. High Clinical DILI Concern | 2. High Clinical DILI Concern | 2.54 | 2.54 | IC50 [1, 12]: 155 µM; IC50 [2, 13]: 26.2 µM
9 | CN1CCN(C2=Nc3cc(Cl)ccc3Nc3ccccc32)CC1 [Clozapine] | – | – | – | – | – | 2.4 | 2.45 | –
10 | O=P1(N(CCCl)CCCl)NCCCO1 (stereo not shown) [Cyclophosphamide] | – | > 2000 | – | – | – | – | – | IC50 ([1]; Homo sapiens, Hepatocyte, 48 h): > 2000 µM; Cmax ([5]; human, in vivo): 143 µM
11 | N[C@@H]1CON=C1O [Cycloserine] | > 10 | 7460 | – | – | – | 333 | 333 | –
12 | C#C[C@]1(O)CC[C@H]2[C@@H]3CCC4=Cc5oncc5C[C@]4(C)[C@H]3CC[C@@]21C [Danazol] | 108 | > 100 | – | – | – | – | 207 | –
13 | CNCCCN1c2ccccc2CCc2ccccc21 [Desipramine] | – | – | 3: Low clinical DILI concern (N = 23) | 3. Low Clinical DILI Concern | 3. Low Clinical DILI Concern | 1.88 | 1.88 | FDA DILI Classification DILI severity score [3]: 3; LTKB DILI classification [3]: Ambiguous DILI concern
14 | C[C@H]1O[C@@H](O[C@H]2[C@@H](O)C[C@H](O[C@H]3[C@@H](O)C[C@H](O[C@H]4CC[C@@]5(C)[C@H](CC[C@@H]6[C@@H]5C[C@@H](O)[C@]5(C)[C@@H](C7=CC(=O)OC7)CC[C@]65O)C4)O[C@@H]3C)O[C@@H]2C)C[C@H](O)[C@@H]1O [Digoxin] | – | 0.33 | – | – | – | – | – | IC50 ([1]; Homo sapiens, Hepatocyte, 48 h): < 0.15 µM; classification at 100 μM IC50 threshold ([1]; PHH 48 h): false positives; classification at 50× MOS threshold ([1]; PHH 48 h): false positive; classification at 100 μM IC50 threshold ([2]; hLiMT 14 days): false positives
15 | CCN1C(=O)NC(c2ccccc2)C1=O (stereo not shown) [Ethotion] | > 1250 | > 150 | – | – | – | 367 | 367 | –
16 | CCOC(=O)C1=C(C)NC(C)=C(C(=O)OC)C1c1cccc(Cl)c1Cl (stereo not shown) [Felodipine] | > 10 | > 10 | – | – | – | 0.03 | 0.03 | –
17 | Cc1onc(-c2c(F)cccc2Cl)c1C(=O)N[C@@H]1C(=O)N2[C@@H]1SC(C)(C)[C@@H]2C(=O)O [Flucloxacillin] | 4670 | 12200 | 2: High clinical DILI concern (N = 23) | 2. High Clinical DILI Concern | 2. High Clinical DILI Concern | 66.1 | 66.1 | –
18 | CNCCC(Oc1ccc(C(F)(F)F)cc1)c1ccccc1 (stereo not shown) [Fluoxetine] | – | – | – | – | – | 0.05 | 0.05 | –
19 | CN1[C@@H]2CC[C@H]1C[C@@H](OC(=O)[C@H](CO)c1ccccc1)C2 [Hyoscyamine (Daturine)] | – | – | – | – | – | – | – | IC50 [1, 12]: > 10 µM; IC50 [2, 13]: > 10 µM

Row | SMILES | IC50 [1, 6] [µM] | IC50 [2, 7] [µM] | DILI severity category [4, 8] | DILI severity category [4, 9] | DILI category [4] | Cmax [5, 10] [µM] | Cmax [5, 11] [µM] | other results
20 | CN(C)CCCN1c2ccccc2CCc2ccccc21 [Imipramine] | – | – | – | – | – | 0.54 | 0.53 | –
21 | C[C@H]1COc2c(N3CCN(C)CC3)c(F)cc3c(=O)c(C(=O)O)cn1c23 [Levofloxacin] | > 500 | > 320 | – | – | – | 15.8 | 15.8 | –
22 | N[C@@H](Cc1cc(I)c(Oc2ccc(O)c(I)c2)c(I)c1)C(=O)O [Liothyronine] | – | > 10 | – | – | – | 0.00246 | 0.00246 | IC50 ([1]; Homo sapiens, Hepatocyte, 48 h): > 10 µM
23 | Nc1cc(N2CCCCC2)nc(N)[n+]1[O-] [Minoxidil] | > 100 | > 100 | – | – | – | 1.2 | 1.19 | –
24 | CO[C@@]12[C@H](COC(N)=O)C3=C(C(=O)C(C)=C(N)C3=O)N1C[C@@H]1N[C@@H]12 [Mitomycin C] | – | < 0.8 | – | – | – | 7.1 | 7.1 | IC50 ([1]; Homo sapiens, Hepatocyte, 48 h): 14.8 µM
25 | COC(=O)C1=C(C)NC(C)=C(C(=O)OCCN(C)Cc2ccccc2)C1c1cccc([N+](=O)[O-])c1 (stereo not shown) [Nicardipine] | – | – | – | – | – | 0.08 | 0.08 | –
26 | CS(=O)(=O)Nc1ccc([N+](=O)[O-])cc1Oc1ccccc1 [Nimesulide] | 436 | 60.5 | – | – | – | 21.1 | 21.1 | –
27 | CCN(CC)CC#CCOC(=O)C(O)(c1ccccc1)C1CCCCC1 (stereo not shown) [Oxybutynin] | – | – | – | – | – | 0.022 | 0.0224 | –
28 | Cc1ccc(N(CC2=NCCN2)c2cccc(O)c2)cc1 [Phentolamine] | > 100 | > 100 | – | – | – | 0.09 | 0.09 | –
29 | OC(CCN1CCCC1)(c1ccccc1)C1CCCCC1 (stereo not shown) [Procyclidine] | 97.9 | 117 | – | – | – | 2.19 | 2.19 | classification at 50× MOS threshold ([1]; PHH 48 h): false positive
30 | CN(C)C(=O)Oc1ccc[n+](C)c1 [Pyridostigmine] | > 200 | > 100 | – | – | – | 1.1 | 1.1 | –
31 | CN(CCOc1ccc(CC2SC(=O)NC2=O)cc1)c1ccccn1 (stereo not shown) [Rosiglitazone] | > 100 | – | 2: High clinical DILI concern (N = 23) | 2. High Clinical DILI Concern | 2. High Clinical DILI Concern | 1 | 1.04 | FDA DILI Classification DILI severity score [3]: 3; LTKB DILI classification [3]: less DILI concern
32 | CN1C(C(=O)Nc2nccs2)=C(O)c2ccccc2S1(=O)=O [Sudoxicam] | > 100 | > 100 | – | – | – | 77 | 77.1 | –
33 | CC/C(=C(\c1ccccc1)c1ccc(OCCN(C)C)cc1)c1ccccc1 [Tamoxifen] | – | – | – | – | – | 0.4 | 0.4 | –
34 | Clc1ccccc1CN1CCc2sccc2C1 [Ticlopidine] | – | – | – | – | – | 8.1 | 8.07 | –
35 | O=C(O)COc1ccc(C(=O)c2cccs2)c(Cl)c1Cl [Tienilic Acid] | > 100 | 567 | 1: Severe clinical DILI (N = 23) | 1. Severe Clinical DILI | 1. Severe Clinical DILI | 82.7 | 82.7 | –
36 | N[C@@H]1[C@H]2CN(c3nc4c(cc3F)c(=O)c(C(=O)O)cn4-c3ccc(F)cc3F)C[C@@H]12 [Trovafloxacin] | > 125 | > 125 | – | – | – | – | – | –
37 | CCCC(CCC)C(=O)O [Valproic acid] | > 100 | > 100 | – | – | – | 693 | 693 | –
